Results taken from US20160002250A1, “POLYMORPHS AND SALTS OF A COMPOUND” (FORUM Pharmaceuticals Inc., priority 2013, published 2016).
≈ marks a conversion by molar mass, not a printed value. Entries after “also recorded” stand apart in the source; their conditions may differ. Marks after values point to notes of the source that are not given here.

Assays:
[1] = Stability of amorphous material at room and elevated humidity conditions; type: physicochemical
Procedure: A DSC experiment was performed to assess the possibility of preparing amorphous material by melting and quench cooling. A sample of Form 1 (˜1 mg) was heated to 200° C. until it melted, then quickly cooled down to −80° C. and re-heated at 10° C./min. […] The crystalline Form 1 then melted at 184° C.
The experiment was repeated on a larger scale (batches of ˜60 mg) on the TGA instrument, and the resulting glasses were used as input materials for maturation experiments. Samples were also stored at elevated humidity conditions for re-analysis by XRPD after 24 h.

[2] = Six-week stability study (elevated humidity, 60° C., room conditions); type: physicochemical; conditions: for Stability to elevated humidity and air oxidation: 60° C. and ambient conditions, XRPD, HPLC, 1H-NMR; for Stability to humidity: elevated humidity and temperature conditions
Procedure: The stability to elevated humidity and air oxidation was investigated for both Form 1 and Form 2 of the Free Base. Samples of both materials were stored at 40° C./75% RH, 25° C./96% RH, 60° C. in contact with air and ambient conditions (25° C. in contact with air) for six weeks, and analyses by XRPD, HPLC and ^1H-NMR (for oxidation study samples only) were carried out weekly.

[3] = Thermodynamic aqueous solubility; conditions: for solubility thermodynamic at 24 h: 25 °C, thermodynamic from solid; for Thermodynamic solubility: 25° C.
Procedure: The suspension was equilibrated at 25° C. for 24 hours then the pH was measured and adjusted with either HCl or NaOH if it deviated by more than 0.3 units from the target pH. The suspension was then filtered through a glass fiber C filter. […] Different volumes of the standard, diluted and undiluted sample solutions were injected.
Analysis was performed on an Agilent HP1100 series system equipped with a diode array detector and using ChemStation software. The following buffers were prepared to carry out the solubility analyses:
pH 1.2—made up by adding 85.0 mL of 0.2M HCl(aq) to 50 mL of 0.2M KCl(aq) and making up to 200 mL. pH 4.5—made up by adding 2.99 g of NaC2H3O2.3H2O to 14.0 mL of 2N AcOH(aq) and making up to 1000 mL. pH 7.4—made up adding 39.1 mL of 0.2M NaOH(aq) to 50.0 mL of a 0.2M KH2PO4 and making up to 200 mL.

[4] = Solubility in solvents, slow cooling and evaporation experiments; type: physicochemical; conditions: 50° C.
Procedure: 4-(4-(imidazo[1,2-b]pyridazin-2-ylmethoxy)phenyl)-2,2-dimethyl-5-(pyridin-4-yl)furan-3(2H)-one (Form 2 or Form 1; ca. 10 mg per experiment) was weighed into vials, and the stated solvents were added, in increasing portions at 50° C. With each addition, the vials were allowed to shake for ˜20 minutes. Any solutions observed were allowed to cool to room temperature. Those experiments that remained as solutions were pin-holed to allow the solvent to slowly evaporate. Any suspensions observed were subjected to heat/cool cycles, between room temperature and 50° C., four hours at each condition.

[5] = Gravimetric Vapour Sorption (GVS); type: physicochemical; conditions: for Form change by XRPD during GVS: RH 0% to 90%; for GVS water uptake (% of mass): RH from 0% to 90%, 25° C.
Procedure: Sorption isotherms were obtained using a SMS DVS Intrinsic moisture sorption analyzer, controlled by DVS Intrinsic Control software v1.0.0.30. The sample temperature was maintained at 25° C. by the instrument controls. The humidity was controlled by mixing streams of dry and wet nitrogen, with a total flow rate of 200 ml/min. The relative humidity was measured by a calibrated Rotronic probe (dynamic range of 1.0-100% RH), located near the sample. The weight change, (mass relaxation) of the sample as a function of % RH was constantly monitored by the microbalance (accuracy ±0.005 mg).
Typically 5-30 mg of sample was placed in a tared mesh stainless steel basket under ambient conditions. The sample was loaded and unloaded at 40% relative humidity (RH) and 25° C. (typical room conditions). A moisture sorption isotherm was performed as outlined below in Table 4 (2 scans giving 1 complete cycle). The standard isotherm was performed at 25° C. at 10% RH intervals over a 0-90% RH range. Data analysis was undertaken in Microsoft Excel using DVS Analysis Suite. The sample was recovered after completion of the isotherm and re-analyzed by XRPD.

[6] = Storage at elevated humidity; type: physicochemical; conditions: for Change in XRPD pattern on storage: seven days
Procedure: Samples were place on a glass slide and sealed in an airtight plastic container, along with an open beaker of saturated aqueous salt solution, and stored at a known regulated temperature. A saturated solution of NaCl was used to obtain a relative humidity of 75% at 40° C., whilst a saturated solution of potassium nitrate was used to provide 92% RH at 25° C.

[7] = 25° C./96% RH, Week 5, samples run after 24 hours in solution
[8] = 40° C./75% RH, 25° C./96% RH, six weeks
[9] = 40° C./75% RH, Week 5, samples run after 24 hours in solution
[10] = 60° C., Week 5, samples run after 24 hours in solution
[11] = Room conditions, Week 5, samples run after 24 hours in solution

CC1(C)OC(c2ccncc2)=C(c2ccc(OCc3cn4ncccc4n3)cc2)C1=O [amorphous material, 4-(4-(imidazo[1,2-b]pyridazin-2-ylmethoxy)phenyl)-2,2-dimethyl-5-(pyridin-4-yl)furan-3(2H)-one]
Form by XRPD after storage at elevated humidity ([1]; elevated humidity conditions, 24 h): All solids displayed Form 1 | Form on standing at room conditions ([1]; typically 25° C., 40% RH): converted to Form 1

CC1(C)OC(c2ccncc2)=C(c2ccc(OCc3cn4ncccc4n3)cc2)C1=O [Form 2, 4-(4-(imidazo[1,2-b]pyridazin-2-ylmethoxy)phenyl)-2,2-dimethyl-5-(pyridin-4-yl)furan-3(2H)-one]
Purity (area %) ([2]; 25° C./96% RH, Week 1): 99.3 area % | Purity (area %) ([2]; 25° C./96% RH, Week 2): 98.9 area % | Purity (area %) ([2]; 25° C./96% RH, Week 3): 98.9 area % | Purity (area %) ([2]; 25° C./96% RH, Week 4): 98.9 area % | Purity (area %) [2, 7]: 98.0* area % | Purity (area %) ([2]; 25° C./96% RH, Week 6): 98.9 area % | Stability to elevated humidity and air oxidation [2, 8]: No significant changes; also recorded: no significant degradation | Purity (area %) ([2]; 40° C./75% RH, Week 1): 99.5 area % | Purity (area %) ([2]; 40° C./75% RH, Week 2): 99.1 area % | Purity (area %) ([2]; 40° C./75% RH, Week 3): 99.2 area % | Purity (area %) ([2]; 40° C./75% RH, Week 4): 99.1 area % | Purity (area %) [2, 9]: 98.8* area % | Purity (area %) ([2]; 40° C./75% RH, Week 6): 98.9 area % | Purity (area %) ([2]; 60° C., Week 1): 98.9 area % | Purity (area %) ([2]; 60° C., Week 2): 99.1 area % | 1H-NMR ([2]; 60° C., Week 4): Very weak | Purity (area %) ([2]; 60° C., Week 4): 99.0 area % | Purity (area %) [2, 10]: 98.6* area % | Purity (area %) ([2]; 60° C., Week 6): 99.0 area % | Purity (area %) ([2]; Room conditions, Week 1): 99.2 area % | Purity (area %) ([2]; Room conditions, Week 2): 98.6 area % | Purity (area %) ([2]; Room conditions, Week 4): 98.6 area % | Purity (area %) [2, 11]: 98.2* area % | Purity (area %) ([2]; Room conditions, Week 6): 98.2 area % | Stability at 60° C. in contact with air ([2]; after 6 weeks, XRPD and HPLC): No significant changes by XRPD or HPLC analyses after | Stability at room conditions (25° C. in contact with air) ([2]; after 6 weeks, XRPD and HPLC): No significant changes by XRPD or HPLC analyses after | Stability at 25° C./96% RH ([2]; after 6 weeks, XRPD and purity): No significant changes by XRPD or purity after 6 weeks | Stability at 40° C./75% RH ([2]; after 6 weeks, XRPD and purity): No significant changes by XRPD or purity after 6 weeks | Stability to humidity ([2]; after 6 weeks): No changes observed at elevated | pH of saturated unfiltered solution ([3]; DI water): 7.23 | solubility thermodynamic at 24 h ([3]; deionized water, water, Thermodynamic solubility, DI water, 24 hours): 40 µg/mL (≈ 97 µM) | thermodynamic aqueous solubility ([3]; deionized water, at pH 7.67 (Form 1), pH 7.23 (Form 2)): about 0.04 mg/ml | pH of saturated unfiltered solution ([3]; pH 1.2 buffer): 1.73 | solubility thermodynamic at 24 h ([3]; pH 1.2 buffer, pH 1.2, simulated gastric fluid, Thermodynamic solubility, 24 hours): 37800 µg/mL (≈ 91600 µM) | pH of saturated unfiltered solution ([3]; pH 4.5 buffer): 4.65 | solubility thermodynamic at 24 h ([3]; pH 4.5 buffer, pH 4.5, aqueous buffer, Thermodynamic solubility, 24 hours): 50 µg/mL (≈ 121 µM) | pH of saturated unfiltered solution ([3]; pH 7.4 buffer): 7.46 | Thermodynamic solubility ([3]; pH 7.4 buffer, 24 hours): 40 µg/mL | Solubility (volumes) ([4]; BuOAc, 50 volumes): Almost | Solubility (volumes) ([4]; BuOAc, 100 volumes): Almost | Solubility (volumes) ([4]; Ethanol, 50 volumes): Almost | Solubility (volumes) ([4]; IPA, 50 volumes): Almost | Solubility (volumes) ([4]; IPA, 100 volumes): Almost | Solubility (volumes) ([4]; IPAc, 50 volumes): Almost | Solubility (volumes) ([4]; IPAc, 100 volumes): Almost | Solubility (volumes) ([4]; MEK, 20 volumes): Almost | Solubility (volumes) ([4]; MIBK, 50 volumes): Almost | Solubility (volumes) ([4]; MIBK, 100 volumes): Almost | Solubility (volumes) ([4]; MeCN/H2O, 10 volumes): Almost | Solubility (volumes) ([4]; Methanol, 10 volumes): Almost | Solubility (volumes) ([4]; Nitromethane, 10 volumes): Almost | Solubility (volumes) ([4]; Toluene, 50 volumes): Almost

CC1(C)OC(c2ccncc2)=C(c2ccc(OCc3cn4ncccc4n3)cc2)C1=O [Form 1, 4-(4-(imidazo[1,2-b]pyridazin-2-ylmethoxy)phenyl)-2,2-dimethyl-5-(pyridin-4-yl)furan-3(2H)-one]
Purity (area %) ([2]; 25° C./96% RH, Week 1): 96.6 area % | Purity (area %) ([2]; 25° C./96% RH, Week 2): 95.5 area % | Purity (area %) ([2]; 25° C./96% RH, Week 3): 96.5 area % | Purity (area %) ([2]; 25° C./96% RH, Week 4): 95.9 area % | Purity (area %) [2, 7]: 91.8* area % | Purity (area %) ([2]; 25° C./96% RH, Week 6): 95.5 area % | Stability to elevated humidity and air oxidation [2, 8]: No significant changes; also recorded: no significant degradation | Purity (area %) ([2]; 40° C./75% RH, Week 1): 96.9 area % | Purity (area %) ([2]; 40° C./75% RH, Week 2): 96.3 area % | Purity (area %) ([2]; 40° C./75% RH, Week 3): 96.5 area % | Purity (area %) ([2]; 40° C./75% RH, Week 4): 95.6 area % | Purity (area %) [2, 9]: 95.6* area % | Purity (area %) ([2]; 40° C./75% RH, Week 6): 96.8 area % | Changes after storage at 60° C. ([2]; 60° C., 4 weeks): no significant changes | Purity (area %) ([2]; 60° C., Week 1): 96.8 area % | Purity (area %) ([2]; 60° C., Week 2): 95.2 area % | Purity (area %) ([2]; 60° C., Week 3): 95.5 area % | Purity (area %) ([2]; 60° C., Week 4): 94.8 area % | Purity (area %) [2, 10]: 96.0* area % | Purity (area %) ([2]; 60° C., Week 6): 95.9 area % | Changes by 1H-NMR or HPLC after storage at 60° C. ([2]; 60° C., six weeks): no significant changes | Purity (area %) ([2]; Room conditions, Week 1): 96.5 area % | Purity (area %) ([2]; Room conditions, Week 2): 94.9 area % | Purity (area %) ([2]; Room conditions, Week 3): 96.6 area % | Purity (area %) ([2]; Room conditions, Week 4): 96.0 area % | Purity (area %) [2, 11]: 95.5* area % | Purity (area %) ([2]; Room conditions, Week 6): 95.9 area % | Stability to humidity ([2]; after 6 weeks): No changes observed at elevated | pH of saturated unfiltered solution ([3]; DI water): 7.67 | Thermodynamic solubility ([3]; DI water, 24 hours): 60 µg/mL | solubility thermodynamic at 24 h ([3]; deionized water, water, thermodynamic aqueous solubility, at pH 7.67 (Form 1), pH 7.23 (Form 2)): ~60 µg/mL (≈ 145 µM) | pH of saturated unfiltered solution ([3]; pH 1.2 buffer): 1.40 | Thermodynamic solubility ([3]; pH 1.2 buffer, 24 hours): 32000 µg/mL | pH of saturated unfiltered solution ([3]; pH 4.5 buffer): 4.67 | Thermodynamic solubility ([3]; pH 4.5 buffer, 24 hours): 60 µg/mL | pH of saturated unfiltered solution ([3]; pH 7.4 buffer): 7.46 | solubility thermodynamic at 24 h ([3]; pH 7.4 buffer, pH 7.4, aqueous buffer, Thermodynamic solubility, 24 hours): 50 µg/mL (≈ 121 µM) | Form change by XRPD during GVS [5]: No form change | GVS water uptake (% of mass) [5]: 0.9% | Change in XRPD pattern on storage ([6]; 25° C./92% RH): no significant change in the XRPD pattern | Change in XRPD pattern on storage ([6]; 40° C./75% RH): no significant change in the XRPD pattern | Solubility (volumes) ([4]; MeCN/H2O, 20 volumes): Almost

CC1(C)OC(c2ccncc2)=C(c2ccc(OCc3cn4ncccc4n3)cc2)C1=O.Cc1ccc(S(=O)(=O)O)cc1.Cc1ccc(S(=O)(=O)O)cc1 [bis-tosylate]
Solubility (mg mL free form equivalent) ([3]; pH point 1.2): 32.29 mg mL free form equivalent | pH of unfiltered saturated solution ([3]; pH point 1.2): 1.21 | Solubility (mg mL free form equivalent) ([3]; pH point 4.5): 0.05 mg mL free form equivalent | pH of unfiltered saturated solution ([3]; pH point 4.5): 4.52 | Solubility (mg mL free form equivalent) ([3]; pH point 7.4): 0.05 mg mL free form equivalent | pH of unfiltered saturated solution ([3]; pH point 7.4): 7.40 | Solubility (mg mL free form equivalent) ([3]; pH point unadjusted aqueous): 29.07 mg mL free form equivalent | pH of unfiltered saturated solution ([3]; pH point unadjusted aqueous): 2.00 | Form change by XRPD during GVS [5]: no accompanying form change | GVS water uptake (% of mass) [5]: 3.1% | Form change on storage ([6]; 40° C./75% RH, one week): no form change
